Reference: paper PMC3517478 (BMC Neurology, 2012)
Numbering of substitutions follows the chain as printed.

Key:
[1] = test system: α1β glycine receptors (wild-type); design: method as in earlier work; settings: heterologously expressed α1β wild-type (WT) glycine receptors; cited from earlier work
[2] = target: T1, human α1R271K-GlyR expressed in HEK 293 cells (Homo sapiens, UniProt P23415, R299K); experiment: Whole-cell patch-clamp, direct activation in the absence of glycine; assay type: cell-based; design: expressed in transfected cells; host or cells: HEK 293 (transient, electroporation; pcDNA1amp vector); settings: R271K
T1 sequence (P23415 29-457 R299K): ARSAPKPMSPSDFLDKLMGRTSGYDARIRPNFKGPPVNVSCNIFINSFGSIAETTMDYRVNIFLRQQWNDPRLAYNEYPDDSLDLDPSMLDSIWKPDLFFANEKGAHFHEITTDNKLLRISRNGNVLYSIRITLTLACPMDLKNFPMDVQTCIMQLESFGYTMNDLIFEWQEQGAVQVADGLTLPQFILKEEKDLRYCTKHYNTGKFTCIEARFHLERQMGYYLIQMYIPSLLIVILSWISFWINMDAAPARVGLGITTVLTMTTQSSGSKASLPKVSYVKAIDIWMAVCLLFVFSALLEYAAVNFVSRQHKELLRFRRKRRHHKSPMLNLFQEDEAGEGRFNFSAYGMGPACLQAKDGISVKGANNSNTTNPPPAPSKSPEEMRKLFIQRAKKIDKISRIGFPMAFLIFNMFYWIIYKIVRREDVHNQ
Procedure: (§1) Drug-containing vials were vigorously vortexed for 30min.
(§2) A new cell was used for each protocol and at least four different experiments were performed for each condition. The concentration of the diluent EtOH corresponding to the highest drug concentration used was 17150 μM.
(§3) Currents were filtered at 2 kHz.

[3] = target: T2, human α1R271L-GlyR expressed in HEK 293 cells (Homo sapiens, UniProt P23415, R299L); experiment: as above; assay type: cell-based; design: expressed in transfected cells; host or cells: HEK 293 (transient, electroporation; pcDNA1amp vector); settings: R271L, 0.01-1000 μM
T2 sequence (P23415 29-457 R299L): T1 sequence (P23415 29-457 R299K) with K271L
Procedure: as §1, §2, §3

[4] = target: T3, human α1R271Q-GlyR expressed in HEK 293 cells (Homo sapiens, UniProt P23415, R299Q); experiment: as above; assay type: cell-based; design: expressed in transfected cells; host or cells: HEK 293 (transient, electroporation; pcDNA1amp vector); settings: R271Q, 0.01-1000 μM
T3 sequence (P23415 29-457 R299Q): T1 sequence (P23415 29-457 R299K) with K271Q
Procedure: as §1, §2, §3

[5] = target: T4, human α1S267I-GlyR expressed in HEK 293 cells (Homo sapiens, UniProt P23415, S295I); experiment: as above; assay type: cell-based; design: expressed in transfected cells; host or cells: HEK 293 (transient, electroporation; pcDNA1amp vector); settings: S267I, 0.01-1000 μM
T4 sequence (P23415 29-457 S295I): T1 sequence (P23415 29-457 R299K) with S267I, K271R
Procedure: as §1, §2, §3

[6] = test system: human alpha1 glycine receptor; settings: human alpha1 glycine receptors in HEK293; cited from earlier work
rat alpha 1 GlyR = rat alpha 1 GlyR in HEK293; cited from earlier work
WT glycine receptor = settings: on cell mode, 4 s drug application; cited from earlier work

4-chloro-2,6-dimethylphenol [4-chloropropofol]
potency relative to propofol in enhancing glycine induced currents [1]: ~1000 fold | direct activation nH [2]: 0.41 ± 0.15 | mean maximal activation (direct) [2]: 77.2 ± 4.2% | EC50 ([2]; 0.01-1000 μM, n = 5): 16.4 ± 22.3 µM | direct activation [3]: completely insensitive | direct activation [4]: only a marginal direct activation | direct activation [5]: completely insensitive

NCC(=O)O [glycine]
Hill slope nH [6]: 2.4 | Hill slope nH (rat alpha 1 GlyR): 3.3 | rise time (WT glycine receptor): 0.4 ms
